The values below come from patent US10465171B2, “7β-hydroxysteroid dehydrogenases and their use” (PharmaZell GmbH, priority 2009, dated 2019).

The test system of assay [1] is 7β-HSDH enzyme from C. aerofaciens ATCC25986 described by Hirano et al. Set-up: unit not given here. The settings on record: enzyme of Hirano et al; cited from earlier work.
The target in assay [2] is T1, 7β-HSDH from Collinsella aerofaciens DSM 3979 (Collinsella aerofaciens, UniProt A4ECA9). The class given is biochemical.
Assay [3] concerns the target 7β-HSDH from Collinsella aerofaciens ATCC 25986 (DSM 3979) (Collinsella aerofaciens, UniProt A4ECA9). The assay can be described thus: Photometric identification of 7β-HSDH activity (cell extract of E. coli expressing the candidate). The format is biochemical. The settings on record: 0.1 mM test substance, potassium phosphate buffer 50 mM pH 8, in the presence of NADP+ or NADPH. The procedure: The expression was performed in 50 ml of LB medium. For the preparation of preculture, one colony on an LB agar plate was picked and incubated overnight at 37° C. and 160 Rpm in 5 ml of LB medium (contains relevant antibiotics) a. The 50 ml of LB medium (contains relevant antibiotics) was inoculated with 500 pi of preculture. The culture was incubated at 37° C. and 160 Rpm. Up to OD600 ca. 0.8, expression was induced by addition of 0.5 mM IPTG. After 6 hrs or one night, the cells were centrifuged down. The pellets were resuspended in 6 ml of potassium phosphate buffer (50 mM, pH 8, contains 0.1 mM PMSF) and disintegrated with ultrasound. The cell fragments were removed by centrifugation.
For the identification of 7β-HSDH activity the activity was tested by photometric methods. For this, enzyme and 0.1 mM of test substance (UDCA) in potassium phosphate buffer (50 mM, pH 8) were mixed in a 1 ml cuvette. After addition of NADPH(NADH) or NADP^+ (NAD^+), the degradation or formation of NAD(P)H was measured.

Assay [4] concerns the target T1, 7β-HSDH from Collinsella aerofaciens DSM 3979. The assay can be described thus: Preparative biotransformation of 7-keto-LCA by 7β-HSDH with ADH cofactor regeneration, HPLC analysis. The format is biochemical. The settings on record: 0.4 g 7-keto-LCA, 100 U 7β-HSDH, 24° C., 24 hours, pH 8. The procedure:
The conversion of 7-keto-LCA by 7β-HSDH was performed in order to verify the biochemical function of 7β-HSDH. 0.4 g of 7-keto-LCA were suspended in 10 ml of potassium phosphate buffer (50 mM, pH 8) and the pH was adjusted to pH 8 by addition of 2M sodium hydroxide. 0.2 ml of isopropanol, 100 U of 7β-HSDH and 80 U of alcohol dehydrogenase (ADH-TE) from Thermoanaerobacter ethanolicus (kindly donated by Dr. K. Momoi, ITB University, Stuttgart) and 1 μmol NADP^+ were added. The same buffer was added, so as to obtain a total reaction volume of 20 ml. The reaction mixture was incubated at 24° C. and stirred for 24 hours. During this, NADPH was regenerated by means of ADH via the oxidation of 2-propanol. […]
An HPLC analysis was performed on a column of the Purospher® STAR RP-18 type (Hitbar® RT 125-4 Pre-Packed Column, Purospher® STAR RP-18 endcapped, Merck, Germany), equipped with a precolumn of the LiChroCART® STAR RP18 type (endcapped, Merck, Germany) on an LC20AD HPLC system (Shimadzu, Japan) at a flow rate of 1 ml/min. […] 20 μl sample (1 mg/ml) were analyzed. […]
To confirm the function of the enzyme, a biotransformation of 7-keto-LCA on the […] was performed, wherein the isolated enzyme was used in combination with ADH for the regeneration of NADPH with the use of 2-propanol, as already described. […] CDCA (retention time 19.4 min) was not detected in the reaction mixture.

Entries after “also recorded” stand apart in the source; their conditions may differ.

7β-HSDH from Collinsella aerofaciens ATCC 25986 (DSM 3979), sequence (A4ECA9 whole entry): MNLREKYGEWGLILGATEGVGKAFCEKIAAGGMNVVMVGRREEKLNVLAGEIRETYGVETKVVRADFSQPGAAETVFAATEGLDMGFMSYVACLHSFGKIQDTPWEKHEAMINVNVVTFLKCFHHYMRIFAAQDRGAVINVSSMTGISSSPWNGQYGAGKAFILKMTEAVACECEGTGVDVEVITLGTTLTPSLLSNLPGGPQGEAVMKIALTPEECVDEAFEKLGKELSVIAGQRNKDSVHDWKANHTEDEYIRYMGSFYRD
T1 sequence (A4ECA9 whole entry): as above

Regarding `NC(=O)c1ccc[n+]([C@@H]2O[C@H](COP(=O)([O-])OP(=O)(O)OC[C@H]3O[C@@H](n4cnc5c(N)ncnc54)[C@H](OP(=O)(O)O)[C@@H]3O)[C@@H](O)[C@H]2O)c1` [NADP^+], the Vmax is recorded as 0.2 in assay [1] and 30.58 U/mg protein in assay [2]. In the case of `C[C@H](CCC(=O)O)[C@H]1CC[C@H]2[C@@H]3C(=O)C[C@@H]4CC(=O)CC[C@]4(C)[C@H]3CC(=O)[C@]12C` [DHCA, Dehydrocholic acid], the activity in assay [3] is listed as 119 U/ml. With `NC(=O)C1=CN([C@@H]2O[C@H](COP(=O)(O)OP(=O)(O)OC[C@H]3O[C@@H](n4cnc5c(N)ncnc54)[C@H](O)[C@@H]3O)[C@@H](O)[C@H]2O)C=CC1` [NADH], in assay [2], the activity as coenzyme result is “very low activity” and the kcat result is “traces”. As for `C[C@H](CCC(=O)O)[C@H]1CC[C@H]2[C@@H]3[C@H](O)C[C@@H]4C[C@H](O)CC[C@]4(C)[C@H]3C[C@H](O)[C@]12C` [CA, Cholic acid], the activity entry in assay [3] is reported as “no activity; also recorded: not detectable”. As for `C[C@H](CCC(=O)O)[C@H]1CC[C@H]2[C@@H]3C(=O)C[C@@H]4C[C@H](O)CC[C@]4(C)[C@H]3CC[C@]12C` [7-keto-LCA, 7-keto-lithocholic acid], in assay [3], the activity is 35 U/ml. The “conversion to UDCA” value in assay [4] was 90%.

For the compound `NC(=O)c1ccc[n+]([C@@H]2O[C@H](COP(=O)([O-])OP(=O)(O)OC[C@H]3O[C@@H](n4cnc5c(N)ncnc54)[C@H](O)[C@@H]3O)[C@@H](O)[C@H]2O)c1` [NAD^+], in assay [2], the activity as coenzyme entry was “very low activity” and the kcat result is “traces”.

Consider `C[C@H](CCC(=O)O)[C@H]1CC[C@H]2[C@@H]3[C@@H](O)C[C@@H]4C[C@H](O)CC[C@]4(C)[C@H]3CC[C@]12C` [UDCA, Ursodeoxycholic acid], for which, in assay [3], the activity is listed as 60 U/ml. Take NADPH: in assay [2], the Vmax came to 33.44 U/mg protein and the kcat is given as 1033.44 1 μmol/(μmol × min).
